Measured values as given in US9790536B2, “Methods for assaying alpha-L-iduronidase enzymatic activity” (University of Washington, priority 2007, dated 2017).

Biological target: T1, α-L-iduronidase (IdA; EC 3.2.1.76) (Homo sapiens, UniProt P35475)
T1 construct: Incubation with IdA present in DBS leads to enzymatic release of the iduronyl group; from tissue; host or cells: dried blood spot (DBS) extract, 3-mm punch
T1 sequence (P35475 28-653): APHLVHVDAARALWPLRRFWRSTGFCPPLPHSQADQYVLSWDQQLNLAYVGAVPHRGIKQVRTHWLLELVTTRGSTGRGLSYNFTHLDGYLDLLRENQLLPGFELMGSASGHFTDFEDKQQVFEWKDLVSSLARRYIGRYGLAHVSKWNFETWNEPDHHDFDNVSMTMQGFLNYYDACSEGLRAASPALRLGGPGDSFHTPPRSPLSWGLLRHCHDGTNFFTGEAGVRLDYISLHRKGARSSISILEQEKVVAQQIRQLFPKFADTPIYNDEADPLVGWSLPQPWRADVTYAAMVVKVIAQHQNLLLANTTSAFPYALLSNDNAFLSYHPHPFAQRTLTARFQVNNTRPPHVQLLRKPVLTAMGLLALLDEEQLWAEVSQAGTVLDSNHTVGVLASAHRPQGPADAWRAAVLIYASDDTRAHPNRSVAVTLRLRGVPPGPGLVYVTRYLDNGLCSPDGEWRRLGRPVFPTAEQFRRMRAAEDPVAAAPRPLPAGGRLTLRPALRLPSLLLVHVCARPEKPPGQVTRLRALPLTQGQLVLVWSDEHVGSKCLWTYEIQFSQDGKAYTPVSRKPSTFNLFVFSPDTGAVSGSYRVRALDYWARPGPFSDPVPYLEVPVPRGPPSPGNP
Assay: ESI-MSMS assay of α-L-iduronidase enzymatic activity in dried blood spots (IdA-P formed as a function of IdA-S concentration)
Format: biochemical
Details: IdA in DBS extract; 37° C., 20 h; IdA-S 0 to 0.67 mmol/L; fit to Michaelis-Menten equation (FIG. 7)
Procedure: A representative method of the invention for assaying α-L-iduronidase enzymatic activity by tandem mass spectrometry is described in Example 3. […] The amount of IdA-P increases linearly with incubation time from 0 to 30 h (FIG. 6); 20 h was chosen as the standard incubation time for the assay described in Example 3. The amount of IdA-P formed at 20 h increased in a hyperbolic fashion as the concentration of IdA-S increased from 0 to 0.67 mmol/L, and Km was determined to be 0.2 mmol/L (FIG. 7). An IdA-S concentration of 0.5 mmol/L was chosen in order to be under saturation conditions. The amount of IdA-P increases with the surface area of added DBS (FIG. 8), with a plateau reached at higher blood amounts (presumably due to the presence of endogenous inhibitors in the DBS). In one embodiment, the method uses a 3-mm-DBS punch.
A single 3-mm diameter DBS (containing ˜3.6 μL of blood) was obtained with a leather punch and was placed in a 1-mL Eppendorf tube. Extraction buffer [160 μL of 0.1 mol/L sodium formate pH 3.4 containing 75 μmol/L D-saccharic acid 1,4-lactone (Sigma); storage at −20° C.] was added to the tube. […]
Extraction of IdA-P and IdA-IS from the enzymatic reaction and blank was performed by addition of 250 μL of ethyl acetate. […] The sample was analyzed within the first 45 seconds of infusion, and after 1 min, the MSMS signal has returned to the background level. […]

For `CC(C)(C)OC(=O)NCCCCNC(=O)Cc1cc(=O)oc2cc(O[C@@H]3O[C@@H](C(=O)O)[C@@H](O)[C@H](O)[C@H]3O)ccc12` [IdA-S, (N-[4″-(tert-butoxycarbonylamino)-butyl]) 7-O-(α-L-idopyranosyluronic acid)coumarin-4-acetamide], the Km was 200 µM.
